Test system: Barnyard grass (Echinochloa crus-galli)
Assay: Test Example 1: post-emergence herbicidal effect against paddy weeds
Assay type: in vivo
Details: 144 h, active ingredient concentration 10 ppm, drop treatment in hydroponic medium, 30° C., full light, six days after treatment, compared to non-treatment group, read-out: herbicidal effect against barnyard grass (score, degree of growth inhibition)
Description: Test Example 1: Test for Post-Emergence Herbicidal Effect Against Paddy Weeds Barnyard grass (Echinochloa crus-galli) was seeded and grown in test tubes containing hydroponic medium in an artificial climate chamber or a phytotron. Agrochemical formulations containing the compounds of the present invention as active ingredients prepared according to Formulation Example 1 were separately diluted with water so that the concentration of the active ingredient would be a predetermined concentration and used for drop treatment of the barnyard grass. The barnyard grass was grown in the artificial climate chamber at 30° C. under full light conditions. Six days after agrochemical treatment, the herbicidal effect was evaluated as compared to the non-treatment group according to the following criteria. Criteria for Herbicidal Effect (Degree of Growth Inhibition) and Phytotoxicity • Score 4 90% to 100% herbicidal effect • Score 3 70% to 89% herbicidal effect • Score 2 40% to 69% herbicidal effect • Score 1 1% to 39% herbicidal effect • Score 0 0% herbicidal effect

**Q.** For `CCO/N=C(\N)c1ccc(S(=O)(=O)NC)c(-c2nc(-c3ccccc3)nn2C)n1` [Compound No. 1-4, (Z)-N′-ethoxy-6-(1-methyl-3-phenyl-1H-1,2,4-triazol-5-yl)-5-(N-methylsulfamoyl)picolinimidamide], which inhibition at 10 ppm is on record?
**A.** 70 to 89%

**Q.** `CCO/N=C(\N)c1ccc(S(=O)(=O)NC)c(-c2nc(-c3ccccc3)cn2C)n1` [Compound No. 2-33, (Z)-N′-ethoxy-6-(1-methyl-4-phenyl-1H-imidazol-2-yl)-5-(N-methylsulfamoyl)picolinimidamide] was tested. Which inhibition at 10 ppm did it give?
**A.** 70 to 89%

**Q.** For `CCO/N=C(\N)c1ccc(S(=O)(=O)NC)c(-n2nc(-c3ccccc3)nc2C)n1` [Compound No. 3-3, (Z)-N′-ethoxy-6-(5-methyl-3-phenyl-1H-1,2,4-triazol-1-yl)-5-(N-methylsulfamoyl)picolinimidamide], which inhibition at 10 ppm is on record?
**A.** 70 to 89%

**Q.** For `CCO/N=C(\N)c1ccc(S(=O)(=O)NC)c(-n2nc(-c3ccccc3)cc2C)n1` [Compound No. 4-6, (Z)-N′-ethoxy-6-(5-methyl-3-phenyl-1H-pyrazol-1-yl)-5-(N-methylsulfamoyl)picolinimidamide], which inhibition at 10 ppm is on record?
**A.** 70 to 89%

**Q.** With `CCO/N=C(\N)c1ccc(C(=O)OCC)c(-c2nn(-c3ccccc3)c(=O)n2C)n1` [Compound No. 5-3, (Z)-ethyl 6-(N′-ethoxycarbamimidoyl)-2-(4-methyl-5-oxo-1-phenyl-4,5-dihydro-1H-1,2,4-triazol-3-yl)nicotinate] as the molecule, how does the inhibition at 10 ppm read?
**A.** 70 to 89%

**Q.** `CCO/N=C(\C)c1ccc(S(C)(=O)=O)c(-n2c(C)nn(-c3ccccc3)c2=O)n1` [Compound No. 6-1, (E)-4-(6-(1-(ethoxyimino)ethyl)-3-(methylsulfonyl)pyridin-2-yl)-3-methyl-1-phenyl-1H-1,2,4-triazol-5(4H)-one] was tested. Which inhibition at 10 ppm did it give?
**A.** 70 to 89%

**Q.** How did the inhibition at 10 ppm turn out when `CCO/N=C(\N)c1ccc(C(=O)OCC)c(-c2nc(-c3ccccc3)sc2C)n1` [Compound No. 7-1, (Z)-ethyl 6-(N′-ethoxycarbamimidoyl)-2-(5-methyl-2-phenylthiazol-4-yl)nicotinate] was run?
**A.** 70 to 89%

**Q.** `CCO/N=C(\N)c1ccc(S(=O)(=O)NC)c(-c2csc(-c3ccccc3)n2)n1` [Compound No. 7-18, (Z)-N′-ethoxy-5-(N-methylsulfamoyl)-6-(2-phenylthiazol-4-yl)picolinimidamide] was tested. Which inhibition at 10 ppm did it give?
**A.** 70 to 89%

**Q.** `CCO/N=C(\N)c1ccc(S(=O)(=O)NC)c(-c2nc(-c3ccccc3)cs2)n1` [Compound No. 8-2, (Z)-N′-ethoxy-5-(N-methylsulfamoyl)-6-(4-phenylthiazol-2-yl)picolinimidamide] was tested. Which inhibition at 10 ppm did it give?
**A.** 70 to 89%

**Q.** With `CCO/N=C(\N)c1ccc(S(C)(=O)=O)c(-c2nc(-c3ccccc3)cs2)n1` [Compound No. 8-17, (Z)-N′-ethoxy-5-(methylsulfonyl)-6-(4-phenylthiazol-2-yl)picolinimidamide] as the molecule, how does the inhibition at 10 ppm read?
**A.** 70 to 89%

**Q.** `CCO/N=C(\N)c1ccc(S(=O)(=O)NC)c(-c2nn(-c3ccccc3)cc2C)n1` [Compound No. 10-2, (Z)-N′-ethoxy-6-(4-methyl-1-phenyl-1H-pyrazol-3-yl)-5-(N-methylsulfamoyl)picolinimidamide] was tested. Which inhibition at 10 ppm did it give?
**A.** 70 to 89%

**Q.** Which inhibition at 10 ppm does the source give for `CCO/N=C(\N)c1ccc(S(C)(=O)=O)c(-c2nn(-c3ccccc3)cc2C)n1` [Compound No. 10-16, (Z)-N′-ethoxy-6-(4-methyl-1-phenyl-1H-pyrazol-3-yl)-5-(methylsulfonyl)picolinimidamide] here?
**A.** 70 to 89%

**Q.** Which inhibition at 10 ppm does the source give for `CCO/N=C(\N)c1ccc(S(C)(=O)=O)c(-c2nn(-c3ccccc3[N+](=O)[O-])nc2C)n1` [Compound No. 11-95, (Z)-N′-ethoxy-6-(5-methyl-2-(2-nitrophenyl)-2H-1,2,3-triazol-4-yl)-5-(methylsulfonyl)picolinimidamide] here?
**A.** 70 to 89%

**Q.** How did the inhibition at 10 ppm turn out when `CCO/N=C(\N)c1ccc(S(=O)(=O)NC)c(-c2nc(-c3ccccc3Cl)nn2C)c1` [Compound No. 17-2, (Z)-3-(3-(2-chlorophenyl)-1-methyl-1H-1,2,4-triazol-5-yl)-N′-ethoxy-4-(N-methylsulfamoyl)benzimidamide] was run?
**A.** 70 to 89%

**Q.** Which inhibition at 10 ppm does the source give for `CCO/N=C(\N)c1ccc(S(=O)(=O)NC)c(-n2nc(C)c(-c3ccccc3)n2)n1` [Compound No. 20-17, (Z)-N′-ethoxy-6-(4-methyl-5-phenyl-2H-1,2,3-triazol-2-yl)-5-(N-methylsulfamoyl)picolinimidamide] here?
**A.** 70 to 89%

— patent US20250331521A1, “NITROGEN-CONTAINING HETEROCYCLIC COMPOUND HAVING AN OXIME GROUP, AGRICULTURAL OR HORTICULTURAL HERBICIDE COMPRISING THE COMPOUND, AND METHOD FOR USING THE COMPOUND OR THE HERBICIDE” (NIHON NOHYAKU CO., LTD., priority 2022, published 2025)
